The values below are quoted from earlier work in publication PMC2483489 (Acta Crystallographica Section D: Biological Crystallography, 2006).

The subject of one data set is c-Kit. The settings on record: ref Mol et al., 2004.
The subject of the next data set is Flt-3. The settings on record: statement in words, no reference given.
Another data set deals with KDR. The settings on record: statement in words, no reference given.
The next data set relates to Irk. The settings on record: statement in words, no reference given.
The subject of data set [1] is resistance mutants isolated from relapsed imatinib patients. The settings on record: ref Weisberg et al., 2006, Kantarjian et al.

The structures appear in SMILES notation.

Consider `Cc1ccc(NC(=O)c2ccc(CN3CCN(C)CC3)cc2)cc1Nc1nccc(-c2cccnc2)n1` [Imatinib, imatinib], for which the “Binding to c-Kit” value in the data set with c-Kit is reported as “does bind”. For the same molecule, the “Binding to Flt-3” value with Flt-3 is on record as “does not bind”. In addition, the “Binding to KDR” value in the data set with KDR is “does not bind”. Moreover, in the data set with Irk, the “Binding to Irk” value is “does not bind”.
In the case of `Cc1cn(-c2cc(NC(=O)c3ccc(C)c(Nc4nccc(-c5cccnc5)n4)c3)cc(C(F)(F)F)c2)cn1` [NVP-AMN107, nilotinib], the “Activity against imatinib-resistance mutants” value in data set [1] was “active against all but one of the resistance mutants”.
